In patent US11236083B2, “Compounds and pharmaceutical compositions for modulating SGK activity, and methods thereof” (NEW ERA PHARMA, INC., priority 2016, dated 2022):
pIC50: −log10 of the molar value. Like-named read-outs stand apart in the source and are kept apart here.

Legend:
Sgk2 = molecular target: T1, Sgk2 (Homo sapiens, UniProt Q9HBY8); assay: Enzyme based assay for SGK2 (biotinylated Akt Substrates-2 peptide, Eu3+ Cryptate/XL665 detection); assay type: biochemical
T1 sequence (Q9HBY8 1-367): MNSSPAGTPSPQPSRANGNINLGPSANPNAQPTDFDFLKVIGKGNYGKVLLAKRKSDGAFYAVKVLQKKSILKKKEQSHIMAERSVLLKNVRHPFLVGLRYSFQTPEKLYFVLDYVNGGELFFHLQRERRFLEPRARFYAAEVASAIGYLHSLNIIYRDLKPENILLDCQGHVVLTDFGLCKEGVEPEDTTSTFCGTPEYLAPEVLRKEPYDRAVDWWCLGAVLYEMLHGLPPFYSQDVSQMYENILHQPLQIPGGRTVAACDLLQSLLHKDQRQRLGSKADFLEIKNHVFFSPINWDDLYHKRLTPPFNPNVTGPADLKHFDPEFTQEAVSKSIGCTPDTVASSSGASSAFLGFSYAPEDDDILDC
Description: (§1) 1. Enzyme Based Assays for SGK1, SGK2, SGK3, and Akt1
(§2) The kinase enzymatic reaction is carried out with a biotinylated Akt Substrates-2 peptide substrate. The phosphorylated substrate is then detected using a specific anti-phospho peptide antibody which is coupled with Eu^3+ Cryptate and XL665 conjugated with streptavidin.
(§3) Exemplary Assay Conditions
(§4) • Enzyme: ˜0.1 nM • Substrate: 0.2 μM • ATP: 50 μM and 1 mM • Mg^2+: 10 mM • Reaction time: 60 min with 50 μM ATP and 30 min with 1 mM ATP • SA-XL to Biotin: 1:10
(§5) Detailed Steps • 1. prepare the enzyme and substrate solution with the buffer from Cisbio • 2. add the enzyme and substrate solution to the diluted compound plate • 3. transfer 5 μL of compound, enzyme, and substrate mixture to an 384-well assay plate • 4. add 5 μL ATP (with Mg^2+) solution to initiate the reaction • 5. after certain time, add 10 μL of stop solution containing SA-XL and specific antibody • 6. read the plate after 2 h incubation at rt • 7. process the data using prizm software (Exemplary results are shown in FIG. 1.) 2. PK Studies Protocol

Sgk1 = molecular target: T2, Sgk1 (Homo sapiens, UniProt O00141); assay: Enzyme based assay for SGK1 (biotinylated Akt Substrates-2 peptide, Eu3+ Cryptate/XL665 detection); assay type: biochemical
T2 sequence (O00141 1-431): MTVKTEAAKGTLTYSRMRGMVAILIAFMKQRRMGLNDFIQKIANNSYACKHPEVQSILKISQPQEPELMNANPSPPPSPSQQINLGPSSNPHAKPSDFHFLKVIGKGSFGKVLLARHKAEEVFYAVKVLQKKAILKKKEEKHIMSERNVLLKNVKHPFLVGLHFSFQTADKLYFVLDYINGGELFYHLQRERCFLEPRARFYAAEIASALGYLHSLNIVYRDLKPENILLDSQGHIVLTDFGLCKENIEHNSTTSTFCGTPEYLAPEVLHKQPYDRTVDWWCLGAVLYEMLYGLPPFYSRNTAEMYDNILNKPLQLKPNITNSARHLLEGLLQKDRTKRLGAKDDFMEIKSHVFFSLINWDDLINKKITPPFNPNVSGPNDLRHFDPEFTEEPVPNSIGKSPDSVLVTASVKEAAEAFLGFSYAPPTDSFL
Description: as §1, §2, §3, §4, §5

HeLa = HeLa cell testing (Table 2); assay type: cell-based; conditions: Homo sapiens; HeLa cells
[1] = PK study in male ICR mice, intravenous and oral administration, plasma concentration; assay type: in vivo; conditions: for MRT inf: read-out: MRT(0-∞)
Source text: 3 Male mice/group, 8 groups total with Intravenous and Oral Administration, then measure the compound concentration in plasma.
Selected Pharmacokinetics Parameters of Compound N in Male ICR Mice Following Intravenous and Oral Administration

[2] = 50 μM ATP, read-out: Sgk2 (50 μM ATP)
[3] = 1 mM ATP, read-out: Sgk2 (1 mM ATP)
[4] = 50 μM ATP, read-out: Sgk1 (50 μM ATP)
[5] = 1 mM ATP, read-out: Sgk1 (1 mM ATP)

Row | SMILES | pIC50 (Sgk2; [2]) | pIC50 (Sgk2; [3]) | pIC50 (Sgk1; [4]) | pIC50 (Sgk1; [5]) | further results
1 | COc1ccc(F)c(S(=O)(=O)Nc2ccc(-c3cc(OCC4CNCCO4)c4cn[nH]c4n3)cc2)c1 (stereo not shown) | 8.46 | 8.01 | 8.47 | 7.97 | 
2 | COc1ccc(F)c(S(=O)(=O)Nc2ccc(-c3cc4c5c(n[nH]c5c3)NC(=O)CO4)cc2)c1 | 7.61 | 6.65 | 7.51 | 6.01 | 
3 | COCCOc1cc(-c2ccc(NS(=O)(=O)c3cc(OC)ccc3F)cc2)nc2[nH]nc(N)c12 | 8.02 | 7.16 | 7.54 | 7.98 | 
4 | COc1ccc(F)c(S(=O)(=O)Nc2ccc(-c3cc(OCCN(C)C)c4c(N)n[nH]c4c3)cc2)c1 | 8.04 | 6.98 | 7.57 | 7.70 | 
5 | CNCCOc1cc(-c2ccc(NS(=O)(=O)c3cc(OC)ccc3F)cc2)cc2[nH]nc(N)c12 | 8.22 | 7.41 | 7.75 | 7.95 | 
6 | COc1ccc(F)c(S(=O)(=O)Nc2ccc(-c3cc(OC(C)C)c4c(N)n[nH]c4c3)cc2)c1 | 7.19 | 6.72 | 7.37 | 7.23 | 
7 | COc1ccc(F)c(S(=O)(=O)Nc2ccc(-c3cc(OC)c4c(N)n[nH]c4c3)nc2)c1 | 8.30 | 8.19 | 7.89 | 7.95 | 
8 | COc1ccc(F)c(S(=O)(=O)Nc2ccc(-c3cc(OC)c4c(N)n[nH]c4c3)cn2)c1 | 8.14 | 7.53 | 7.53 | 6.88 | 
9 | COc1ccc(F)c(S(=O)(=O)Nc2ccc(-c3cc4c5c(n[nH]c5c3)NC(=O)C(C)(C)O4)cc2)c1 | 7.46 | 6.49 | 7.11 | 6.46 | 
10 | COc1ccc(F)c(S(=O)(=O)Nc2ccc(-c3cc4c5c(n[nH]c5c3)NC(=O)CN4)cc2)c1 | 8.47 | 7.73 | 8.32 | 7.90 | 
11 | CCOc1cc(-c2ccc(NS(=O)(=O)c3cc(OC)ccc3F)cc2)nc2[nH]nc(N)c12 | 8.11 | 8.00 | 7.79 | 8.09 | 
12 | COc1ccc(F)c(S(=O)(=O)Nc2ccc(-c3cc(OCCN(C)C)c4c(N)n[nH]c4n3)cc2)c1 | 8.38 | 7.40 | 7.35 | 6.73 | 
13 | COc1ccc(F)c(S(=O)(=O)Nc2ccc(-c3cc(OC4CCOC4)c4c(N)n[nH]c4n3)cc2)c1 (stereo not shown) | 8.12 | 8.12 | 7.61 | 8.05 | 
14 | COc1ccc(F)c(S(=O)(=O)Nc2ccc(-c3cc(C)c4c(N)n[nH]c4c3)nc2)c1 | 8.30 | 8.10 | 8.00 | 8.04 | 
15 | CCOc1cc(-c2ccc(NS(=O)(=O)c3cc(OC)ccc3F)cn2)cc2[nH]nc(N)c12 | 7.12 | 7.70 | 7.85 | 6.96 | 
16 | COCCOc1cc(-c2ccc(NS(=O)(=O)c3cc(OC)ccc3F)cn2)cc2[nH]nc(N)c12 | 8.35 | 7.48 | 7.40 | 7.82 | 
17 | COc1ccc(F)c(S(=O)(=O)Nc2ccc(-c3cc(O[C@H]4CCOC4)c4c(N)n[nH]c4c3)nc2)c1 | 7.84 | 7.75 | 6.96 | 6.74 | 
18 | COc1ccc(F)c(S(=O)(=O)Nc2ccc(-c3cc(O[C@@H]4CCOC4)c4c(N)n[nH]c4c3)nc2)c1 | 8.40 | 7.44 | 8.07 | 7.99 | 
19 | O=S(=O)(Nc1ccc(-c2ccc3cn[nH]c3n2)cc1)c1cc(Cl)ccc1F | 8.23 | 6.77 | 7.01 | 7.11 | pIC50 (HeLa): 5.66
20 | COc1ccc(F)c(S(=O)(=O)Nc2ccc(-c3ccc4cn[nH]c4n3)cc2)c1 | 8.74 | 7.18 | 8.28 | 6.82 | pIC50 (HeLa): < 4.30
21 | Nc1n[nH]c2nc(-c3ccc(NS(=O)(=O)c4cc(Cl)ccc4F)cc3)ccc12 | 7.66 | 6.24 | 6.62 | < 5.70 | pIC50 (HeLa): 4.70
22 | O=S(=O)(Nc1ccc(-c2ccc3cn[nH]c3c2)cc1)c1cc(Cl)ccc1F | 7.49 | 6.18 | 6.91 | 6.45 | pIC50 (HeLa): 5.61
23 | COc1ccc(F)c(S(=O)(=O)Nc2ccc(-c3cc4[nH]ncc4cn3)cc2)c1 | 8.01 | < 6.70 | 6.80 | < 6.70 | 
24 | COc1ccc(F)c(S(=O)(=O)Nc2ccc(-c3ccc4c(N)n[nH]c4c3)nc2)c1 [Compound N, N-(6-(3-amino-1H-indazol-6-yl)pyridin-3-yl)-2-fluoro-5-methoxybenzenesulfonamide] |  |  |  |  | CLz ([1]; IV (2 mg/kg)): 0.17 mL/min/kg; t1/2z ([1]; IV (2 mg/kg)): 6.99 h; t1/2z ([1]; PO (20 mg/kg)): 17.27 h; F ([1]; PO (20 mg/kg), F is calculated from AUC(0-t)): 63.37%; AUC(0-inf) ([1]; mouse, plasma, IV (2 mg/kg)): 165 µg·h/mL; AUC(0-t) ([1]; mouse, plasma, IV (2 mg/kg)): 151 µg·h/mL; Cmax ([1]; mouse, plasma, IV (2 mg/kg)): 29.1 µg/mL; Tmax ([1]; mouse, plasma, IV (2 mg/kg)): 0.08 h; MRT inf ([1]; mouse, plasma, IV (2 mg/kg)): 8.84 h; Vd ([1]; mouse, plasma, IV (2 mg/kg), read-out: Vz): 0.12 L/kg; AUC(0-inf) ([1]; mouse, plasma, PO (20 mg/kg)): 1530 µg·h/mL; AUC(0-t) ([1]; mouse, plasma, PO (20 mg/kg)): 957 µg·h/mL; Cmax ([1]; mouse, plasma, PO (20 mg/kg)): 71.9 µg/mL; Tmax ([1]; mouse, plasma, PO (20 mg/kg)): 0.25 h; MRT inf ([1]; mouse, plasma, PO (20 mg/kg)): 24.1 h
25 | COc1ccc(F)c(S(=O)(=O)Nc2ccc(-c3ccc4c(N)n[nH]c4c3)nc2)c1 [drawing 151] | 8.34 | 7.68 | 7.60 | 6.80 | 
